Results: US20230286973A1, “PROTEIN SECRETION INHIBITORS” (KEZAR LIFE SCIENCES, priority 2020, published 2023)
pEC50, pIC50: −log10 of the molar value.

How the values were obtained:
[1] = system: PD1-ss+10aa/Gaussia Luciferase; experiment: Dox-Induced PD1-ss-Gluc Assay; assay type: cell-based; details: 24 hr Dox induction; 293FRT/TO cells; mean; read-out: 24 hr Dox Inducible PD1ssGluc 293FRT/TO: Mean IC50
In short: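 The cell line was made by transfecting Flp-In 293 T-REx cells with a PD1 signal sequence+10aa–Gaussia luciferase fusion under T-REx control and selecting with hygromycin and blasticidin. Cells were seeded, and next day compound plus doxycycline was added at 37 °C, 5% CO2.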

[2] = system: TNFα-FL/Gaussia Luciferase; experiment: Dox Induced TNFα-FL-Gluc Assay; assay type: cell-based; details: for pIC50: 24 hr Dox induction, 293FRT/TO cells, mean, read-out: 24 hr Dox Inducible TNFaFLGluc 293FRT/TO: Mean IC50; for 24 hr Dox Inducible TNFaFLGluc 293FRT/TO: TNF/PD1: ratio of TNFaFLGluc IC50 to PD1ssGluc IC50, '<=>' given where both are I.A.
In short: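 Flp-In 293 T-REx cells stably expressing full-length TNFα (aa 1-233) fused at its C-terminus to Gaussia luciferase under tetracycline-regulated control were plated the day before assay. Compound dilutions in DMSO/media containing doxycycline were added and incubated at 37 °C, 5% CO2. Unspecified stereochemistry denotes stereoisomer mixtures.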

[3] = system: HER3-ss+4aa/Gaussia Luciferase; experiment: Dox-Induced Her3-ss-Gluc Assay; assay type: cell-based; details: 24 hr Dox induction; 293FRT/TO cells; mean; read-out: 24 hr Dox Inducible Her3(ss + 4)Gluc 293FRT/TO: Mean IC50
In short: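 Stable Flp-In 293 T-REx line expressing Gaussia luciferase fused to the HER3 signal sequence plus 4 amino acids under tetracycline-regulated (T-REx) control. Cells plated the day before, then treated with compound dilutions in DMSO/media containing doxycycline and incubated at 37° C., 5% CO2.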

[4] = system: IL-2-FL/Gaussia Luciferase; experiment: Dox Induced IL2-FL-Gluc Assay; assay type: cell-based; details: for pIC50: 24 hr Dox induction, 293FRT/TO cells, mean, read-out: 24 hr Dox Inducible IL2FLGluc 293FRT/TO: Mean IC50; for 24 hr Dox Inducible IL2FLGluc 293FRT/TO: IL2/PD1: ratio of IL2FLGluc IC50 to PD1ssGluc IC50, '<=>' given where both are I.A.
In short: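 Flp-In 293 T-REx cells stably carrying doxycycline-inducible full-length IL-2 (aa 1-153) fused at its C-terminus to Gaussia luciferase, selected with hygromycin and blasticidin. Cells were plated the day before, then treated with compounds in DMSO/media containing doxycycline at 37° C, 5% CO2.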

[5] = system: multiple myeloma cell line NCI-H929; experiment: H929 Cell Viability Assay; assay type: cell-based, human; details: Homo sapiens, NCI-H929, 48 h, NCI-H929 cells, Celltiter-Glo
In short: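 NCI-H929 cells, resuspended in RPMI 1640 with 10% FBS and 2 mM glutamine, were treated with compound dilutions in DMSO/media and incubated 48 hours at 37° C, 5% CO2. Viability was read by CellTiter-Glo luminescence. Compounds drawn without stereochemistry were tested as stereoisomer mixtures.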

[6] = system: multiple myeloma cell line U266B1; experiment: U266 Cell Viability Assay; assay type: cell-based, human; details: Homo sapiens, U-266, 48 h, U266B1 cells, Celltiter-Glo
In short: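 Cells grown in RPMI 1640 with 10% FBS, 2 mM glutamine and penicillin/streptomycin were exposed to compound dilutions in DMSO/media for 48 hours at 37° C., 5% CO2. Viability was read by CellTiter-Glo luminescence. Undefined stereocentres mean data for stereoisomer mixtures.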

[7] = Liver Microsome Stability Assay (rat); details: rat liver microsomes, with NADPH, 1.0 uM compound
Procedure: (§1) Stability of a compound was assessed in the presence of liver microsomes from various sources—mouse, rat, monkey and human liver microsomes. 1.0 uM compound, 0.4% DMSO in 0.1 M Potassium Phosphate with 1.0 mg/mL liver microsomes, were incubated at 37° C. with or without 1 mM NADPH. The samples were quenched at 0, and 30 minutes.

[8] = Liver Microsome Stability Assay (mouse); details: mouse liver microsomes, with NADPH, 1.0 uM compound
Procedure: as §1

[9] = Liver Microsome Stability Assay (human); details: human liver microsomes, with NADPH, 1.0 uM compound
Procedure: as §1

[10] = Liver Microsome Stability Assay (monkey); details: monkey liver microsomes, with NADPH, 1.0 uM compound
Procedure: as §1

Compound | pIC50 [1] | pIC50 [2] | pIC50 [3] | pIC50 [4] | pEC50 [5] | pEC50 [6] | Liver Microsome Stability (Multiple Species): Rat - % Remaining after 30 min w/NADPH [7] [%] | Liver Microsome Stability (Multiple Species): Mouse - % Remaining after 30 min w/NADPH [8] [%] | Liver Microsome Stability (Multiple Species): Human - % Remaining after 30 min w/NADPH [9] [%] | Liver Microsome Stability (Multiple Species): Monkey - % Remaining after 30 min w/NADPH [10] [%] | 24 hr Dox Inducible TNFaFLGluc 293FRT/TO: TNF/PD1 [2] | 24 hr Dox Inducible IL2FLGluc 293FRT/TO: IL2/PD1 [4]
CC(=O)Nc1ccc(N2CCC[C@@H]2c2csc(NC(=O)c3cccn3C[C@@H](C)CC#N)n2)cc1 [Compound C117, N-(4-((R)-1-(4-acetamidophenyl)pyrrolidin-2-yl)thiazol-2-yl)-1-((S)-3-cyano-2-methylpropyl)-1H-pyrrole-2-carboxamide] | 7.59 | 6.56 | 7.30 | 7.27 | 5.95 | < 4.60 | 16.5 | 7.53 | 9.81 | 4.1 | 10.7 | 2.1
O=C(Nc1nc([C@H]2CCCN2c2ccccc2)cs1)c1cccn1Cc1cccc(F)c1 [Compound C118, (R)-1-(3-fluorobenzyl)-N-(4-(1-phenylpyrrolidin-2-yl)thiazol-2-yl)-1H-pyrrole-2-carboxamide] | 6.14 | 5.01 | 6.14 | 6.00 | < 4.60 | < 4.60 | 33.5 | 48.1 | 59.7 | 26.9 | 13.6 | 1.4
O=C(Nc1nc([C@H]2CCCN2c2ccccc2)cs1)c1cccn1Cc1ccc(F)cc1 [Compound C119, (R)-1-(4-fluorobenzyl)-N-(4-(1-phenylpyrrolidin-2-yl)thiazol-2-yl)-1H-pyrrole-2-carboxamide] | 5.67 | < 4.60 | 5.82 | 5.79 | < 4.60 | < 4.60 | 49.6 | 42.4 | 61.3 | 23.4 | >11.8 | 0.76

The next lines start with results.

pIC50 [1] | pIC50 [2] | pIC50 [3] | pIC50 [4] | pEC50 [5] | pEC50 [6] | Liver Microsome Stability (Multiple Species): Rat - % Remaining after 30 min w/NADPH [7] [%] | Liver Microsome Stability (Multiple Species): Mouse - % Remaining after 30 min w/NADPH [8] [%] | Liver Microsome Stability (Multiple Species): Human - % Remaining after 30 min w/NADPH [9] [%] | Liver Microsome Stability (Multiple Species): Monkey - % Remaining after 30 min w/NADPH [10] [%] | Compound | 24 hr Dox Inducible TNFaFLGluc 293FRT/TO: TNF/PD1 [2] | 24 hr Dox Inducible IL2FLGluc 293FRT/TO: IL2/PD1 [4]
5.35 | < 4.60 | 5.74 | 5.69 | < 4.60 | < 4.60 | 36.8 | 38 | 62.8 | 51.1 | Cc1cccc(Cn2cccc2C(=O)Nc2nc([C@H]3CCCN3c3ccccc3)cs2)c1 [Compound C120, (R)-1-(3-methylbenzyl)-N-(4-(1-phenylpyrrolidin-2-yl)thiazol-2-yl)-1H-pyrrole-2-carboxamide] | >5.66 | 0.47
5.64 | < 4.60 | 5.92 | 5.87 | < 4.60 | < 4.60 | 50.2 | 52.1 | 64.9 | 44.2 | O=C(Nc1nc([C@H]2CCCN2c2ccccc2)cs1)c1cccn1Cc1cccc(Br)c1 [Compound C121, (R)-1-(3-bromobenzyl)-N-(4-(1-phenylpyrrolidin-2-yl)thiazol-2-yl)-1H-pyrrole-2-carboxamide] | >10.8 | 0.58
